Where “and” joins values, the source holds several entries; their conditions need not be identical. Identical values can stand only once.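 1) Cells in 96-well plates. 2) Compound, 48 h, 5 concentrations. 3) Linear interpolation between surrounding doses. 4) Unreached endpoint = highest concentration. GI50 is the concentration that inhibits growth by half. TGI denotes the concentration required for complete inhibition of growth.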
How the values were obtained:
Assay in all cases: DTP human tumour cell line panel, 48 h
SR leukemia = tested on: SR leukemia
MOLT-4 leukemia = tested on: MOLT-4 leukemia
UACC-62 melanoma = tested on: UACC-62 melanoma
HT29 colon = tested on: HT29 colon
HL-60(TB) leukemia = tested on: HL-60(TB) leukemia
HCT-15 colon = tested on: HCT-15 colon
SF-268 CNS = tested on: SF-268 CNS
HCC-2998 colon = tested on: HCC-2998 colon
OVCAR-4 ovarian = tested on: OVCAR-4 ovarian
UACC-257 melanoma = tested on: UACC-257 melanoma

Row | Structure (SMILES) | TGI (SR leukemia) | TGI (MOLT-4 leukemia) | TGI (UACC-62 melanoma) | TGI (HT29 colon) | TGI (HL-60(TB) leukemia) | TGI (HCT-15 colon) | TGI (SF-268 CNS) | TGI (HCC-2998 colon) | TGI (OVCAR-4 ovarian) | TGI (UACC-257 melanoma) | GI50 (SR leukemia) | GI50 (MOLT-4 leukemia) | GI50 (UACC-62 melanoma) | GI50 (HT29 colon) | GI50 (HL-60(TB) leukemia) | GI50 (HCT-15 colon) | GI50 (SF-268 CNS) | GI50 (HCC-2998 colon) | GI50 (OVCAR-4 ovarian) | GI50 (UACC-257 melanoma)
1 | Cc1cc(C)c(-n2c(-c3ccc(Br)cc3)cs/c2=N\N=C2C=C(C(C)(C)C)C(=O)C(C(C)(C)C)=C2)c(C)c1 | > 100 µM | > 100 µM | > 100 µM | > 100 µM | > 100 µM | > 100 µM | > 100 µM | > 100 µM | > 100 µM | > 100 µM | – | – | – | – | – | – | – | – | – | –
2 | CC12CCC(Br)C(C)(C)C1CC=C1C(=O)OCC1O2 (stereo not drawn) | 31.2 µM | > 100 µM | 25.7 µM | 87.5 µM | > 100 µM | 39 µM | 31.9 µM | 24.9 µM | 42.3 µM | 27 µM | – | – | – | – | – | – | – | – | – | –
3 | CCCCCCCc1cc2c3c(nc4ccccc42)C(=O)c2cccnc2-c3n1 | 10.7 µM | > 20.2 µM | 10.1 µM | 27.7 µM | – | 5.58 µM | 11.8 µM | 7.56 µM | 13.8 µM | 3.46 µM | 3020 nM | 1540 nM | 5410 nM | 5990 nM | 1420 nM | 970 nM | 5480 nM | 2930 nM | 5.74 µM | 1960 nM
4 | CCOC(=O)c1c2c(n3ccccc13)C(=O)c1ncccc1C2=O | > 100 µM | 76.8 µM | 1.39 µM | 5.68 µM | 1.09 µM | 12.8 µM | 23.3 µM | 14.3 µM | 12.3 µM | 4.21 µM | 15.9 nM | 2430 nM | 33.7 nM | 1630 nM | 78.4 nM | 24 nM | 47.4 nM | 877 nM | 0.687 µM | 280 nM
5 | O=C1C(=Cc2c(O)cc(O)cc2O)C(=O)c2ccccc21 | 50.7 µM | > 81.6 µM | > 54.9 µM | > 56.4 µM | 43.5 µM | > 77 µM | > 63.1 µM | > 56.4 µM | > 72.7 µM | > 58.1 µM | – | – | – | – | – | – | – | – | – | –
6 | COc1ccc(C2ON(c3cccc(C)n3)CC=C2C)cc1 (stereo not drawn) | 99.2 µM | > 100 µM | > 100 µM | > 100 µM | 43.7 µM | > 100 µM | > 100 µM | > 100 µM | > 100 µM | > 100 µM | – | – | – | – | – | – | – | – | – | –
7 | COc1ccc2c(c1)C(=O)c1c-2n(CCCI)c(=O)c2cc([N+](=O)[O-])ccc12 | 0.0888 µM and 0.143 µM | 0.971 µM and 0.117 µM | 0.851 µM and 1.35 µM | – | 2.26 µM and 0.822 µM | 50 µM and 28 µM | 44.4 µM and > 100 µM | 6.41 µM and 21.9 µM | 11.9 µM and 84.3 µM | 17.4 µM and 37.9 µM | 5 nM | 60 nM and 21.4 nM | 109 nM and 149 nM | 160 nM and 437 nM | 167 nM and 52.6 nM | 1050 nM and 1130 nM | 161 nM and 141 nM | 630 nM and 797 nM | 1.03 µM and 3.72 µM | 914 nM and 4130 nM
8 | COc1ccccc1NC(=O)CC(=O)N/N=C/c1ccc(N(CCC#N)S(=O)(=O)c2ccccc2)cc1 | > 100 µM | > 100 µM | > 100 µM | > 100 µM | > 100 µM | > 100 µM | > 100 µM | > 100 µM | > 100 µM | > 100 µM | – | – | – | – | – | – | – | – | – | –
9 | CCCSS[C@H]1NC(=O)[C@H]1NC(=O)COc1ccccc1 | 19.6 µM | 13.2 µM | 32.1 µM | 36.3 µM | 5.72 µM | 24.9 µM | 40.5 µM | 29.9 µM | 31.9 µM | 27.8 µM | – | – | – | – | – | – | – | – | – | –
10 | CC(=O)OCc1cc2ccccc2nc1C(Br)(Br)Br | 13.7 µM | 28.1 µM | 32.2 µM | 44.9 µM | 40.9 µM | 54.7 µM | 39.9 µM | 29.3 µM | 30.5 µM | 27 µM | – | – | – | – | – | – | – | – | – | –
11 | C#CCOc1cccc(Nc2ncnc3cc(NC(=O)CCl)ccc23)c1 | 5.59 µM | 7.42 µM | 16.9 µM | 6.11 µM | 12.5 µM | 6.8 µM | 19.7 µM | 22.6 µM | 35.7 µM | 32.3 µM | 490 nM | 1960 nM | 4240 nM | 2080 nM | 3290 nM | 1510 nM | 4320 nM | 8830 nM | 12.1 µM | 15400 nM
12 | O=C(O)CCc1nn2c(nc1=O)sc1ccc3ccccc3c12 | > 100 µM | > 100 µM | > 100 µM | > 100 µM | > 100 µM | > 100 µM | > 100 µM | > 100 µM | > 100 µM | > 100 µM | – | – | – | – | – | – | – | – | – | –
13 | N#CC1(C#N)C(C#N)(C#N)C12CCCCCC2 | 75.2 µM | 19.5 µM | 18.4 µM | 34.6 µM | 20.6 µM | 24.2 µM | 48.9 µM | 35.3 µM | 30 µM | 27.4 µM | – | – | – | – | – | – | – | – | – | –
14 | CC(C)(c1ccccc1)c1ccc(OC#N)cc1 | 43.1 µM | > 100 µM | > 100 µM | > 100 µM | > 77.9 µM | 31.3 µM | > 100 µM | > 100 µM | > 100 µM | > 100 µM | – | – | – | – | – | – | – | – | – | –

Source: PubChem BioAssay (NCI)
